In ChEMBL document CHEMBL1201862, “PubChem BioAssay data set” (2004):
Activity calls are given as the source filed them.

Legend:
[1] = target: T1, ATP-dependent translocase ABCB1 (Homo sapiens, UniProt P08183); assay: ABCB1 efflux inhibitor potency, dose response, Jurkat-DNR cells, JC-1, flow cytometry, set 2 (AID 504569); format: functional; conditions: read-out: EC50_MICROM_;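 note: potency of pump inhibitors that raise cellular JC-1 green fluorescence up to the nicardipine level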
[2] = target: T1, ATP-dependent translocase ABCB1; assay: ABCG2 efflux pump inhibitor potency, dose response, Ig-MXP3 cells, JC-1, flow cytometry, set 2 (AID 504566); format: functional; conditions: read-out: EC50_MICROM_;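 note: flow cytometry median green fluorescence of retained JC-1 dye; potency of efflux pump inhibition measured as rising substrate retention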
H9c2 = assay: cells; format: functional, cell-based; conditions: Rattus norvegicus, H9c2, Myocardium;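 note: confirmatory concentration-response retest of ultra-high-throughput screening hits for modulation of myocardial damage; cell death induced by hydrogen peroxide oxidative stress; compound pretreatment for 60 min then peroxide exposure for 2 h; potency is for protecting the cells against peroxide damage rather than for killing them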
[3] = target: T2, Apoptotic protease-activating factor 1 (Homo sapiens, UniProt O14727); assay: SAR analysis of small molecule Activators of Apaf-1 in a Fluorescent assay.; format: functional; conditions: read-out: EC50_Mean;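 note: caspase-3 cleavage of fluorogenic Rh110 DEVD substrate downstream of apoptosome activation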
T2 sequence (O14727 whole entry): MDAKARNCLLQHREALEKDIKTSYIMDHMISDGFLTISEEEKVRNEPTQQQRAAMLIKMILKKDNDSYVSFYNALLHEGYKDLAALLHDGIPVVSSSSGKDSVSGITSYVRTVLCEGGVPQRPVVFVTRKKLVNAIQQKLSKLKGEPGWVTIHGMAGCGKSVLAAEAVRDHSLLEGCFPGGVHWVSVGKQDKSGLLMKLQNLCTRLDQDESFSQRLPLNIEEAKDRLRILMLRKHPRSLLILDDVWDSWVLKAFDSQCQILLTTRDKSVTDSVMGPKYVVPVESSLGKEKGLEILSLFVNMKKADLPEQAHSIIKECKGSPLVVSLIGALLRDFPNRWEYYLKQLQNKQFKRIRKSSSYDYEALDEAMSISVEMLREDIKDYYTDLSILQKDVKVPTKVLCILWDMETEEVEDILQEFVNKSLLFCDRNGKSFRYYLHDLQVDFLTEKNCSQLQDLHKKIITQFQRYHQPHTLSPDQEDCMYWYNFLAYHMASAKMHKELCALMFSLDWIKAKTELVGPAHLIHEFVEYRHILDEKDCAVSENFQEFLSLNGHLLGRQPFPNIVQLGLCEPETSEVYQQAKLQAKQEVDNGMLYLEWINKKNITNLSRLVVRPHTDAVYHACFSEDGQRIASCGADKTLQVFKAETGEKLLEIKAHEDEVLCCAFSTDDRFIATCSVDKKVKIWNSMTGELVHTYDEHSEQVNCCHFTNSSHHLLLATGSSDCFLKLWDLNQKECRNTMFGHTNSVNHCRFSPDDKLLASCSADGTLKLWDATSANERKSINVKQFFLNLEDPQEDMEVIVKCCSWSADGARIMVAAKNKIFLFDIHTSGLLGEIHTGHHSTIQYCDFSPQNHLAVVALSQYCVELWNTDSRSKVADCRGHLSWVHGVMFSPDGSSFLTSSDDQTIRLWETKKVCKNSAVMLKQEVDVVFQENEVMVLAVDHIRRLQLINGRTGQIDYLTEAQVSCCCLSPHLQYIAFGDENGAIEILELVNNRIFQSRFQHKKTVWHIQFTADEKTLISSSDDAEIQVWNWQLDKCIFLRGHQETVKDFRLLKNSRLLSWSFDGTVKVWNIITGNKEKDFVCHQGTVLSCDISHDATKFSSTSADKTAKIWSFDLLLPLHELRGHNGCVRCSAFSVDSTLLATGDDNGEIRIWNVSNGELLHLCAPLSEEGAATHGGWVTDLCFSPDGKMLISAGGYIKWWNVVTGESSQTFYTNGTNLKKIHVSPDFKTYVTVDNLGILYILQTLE

[4] = StAR promoter reporter inhibition counter-screen, dose response, counter-screen for LRH-1 inverse agonist project, cell-based, luminescence, luciferase reporter (AID 651969); format: functional
[5] = target: Nuclear receptor subfamily 5 group A member 2 (Homo sapiens, UniProt O00482); format: functional, cell-based;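 note: HEK293T cells transfected with LRH-1 and a StAR promoter luciferase reporter; potency for inhibitors that lower LRH-1 driven reporter light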
Steroidogenic factor 1 = Steroidogenic factor 1 (Homo sapiens, UniProt Q13285); assay: Counterscreen for inverse agonists of the liver receptor homolog-1 (LRH-1; NR5A2): Luminescence-based cell-based high throughput dose response assay to identify inverse agonists of the Steroidogenic Factor 1 Nuclear Receptor (SF1; NR5A1).; format: functional
Sequence of Steroidogenic factor 1 (Q13285 whole entry): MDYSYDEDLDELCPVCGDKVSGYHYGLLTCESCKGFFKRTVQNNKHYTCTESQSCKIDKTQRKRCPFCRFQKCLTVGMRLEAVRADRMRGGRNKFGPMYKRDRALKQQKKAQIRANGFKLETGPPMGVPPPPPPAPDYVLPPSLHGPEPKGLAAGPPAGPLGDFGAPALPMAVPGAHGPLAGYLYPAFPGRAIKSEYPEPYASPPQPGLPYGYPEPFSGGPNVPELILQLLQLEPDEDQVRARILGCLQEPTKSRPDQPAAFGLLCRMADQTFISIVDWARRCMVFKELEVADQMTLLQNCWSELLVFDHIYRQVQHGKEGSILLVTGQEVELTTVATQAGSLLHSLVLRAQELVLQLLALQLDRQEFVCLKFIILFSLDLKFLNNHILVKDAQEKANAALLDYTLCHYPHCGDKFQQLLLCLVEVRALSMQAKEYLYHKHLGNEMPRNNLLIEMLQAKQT

T1 sequence (P08183 whole entry): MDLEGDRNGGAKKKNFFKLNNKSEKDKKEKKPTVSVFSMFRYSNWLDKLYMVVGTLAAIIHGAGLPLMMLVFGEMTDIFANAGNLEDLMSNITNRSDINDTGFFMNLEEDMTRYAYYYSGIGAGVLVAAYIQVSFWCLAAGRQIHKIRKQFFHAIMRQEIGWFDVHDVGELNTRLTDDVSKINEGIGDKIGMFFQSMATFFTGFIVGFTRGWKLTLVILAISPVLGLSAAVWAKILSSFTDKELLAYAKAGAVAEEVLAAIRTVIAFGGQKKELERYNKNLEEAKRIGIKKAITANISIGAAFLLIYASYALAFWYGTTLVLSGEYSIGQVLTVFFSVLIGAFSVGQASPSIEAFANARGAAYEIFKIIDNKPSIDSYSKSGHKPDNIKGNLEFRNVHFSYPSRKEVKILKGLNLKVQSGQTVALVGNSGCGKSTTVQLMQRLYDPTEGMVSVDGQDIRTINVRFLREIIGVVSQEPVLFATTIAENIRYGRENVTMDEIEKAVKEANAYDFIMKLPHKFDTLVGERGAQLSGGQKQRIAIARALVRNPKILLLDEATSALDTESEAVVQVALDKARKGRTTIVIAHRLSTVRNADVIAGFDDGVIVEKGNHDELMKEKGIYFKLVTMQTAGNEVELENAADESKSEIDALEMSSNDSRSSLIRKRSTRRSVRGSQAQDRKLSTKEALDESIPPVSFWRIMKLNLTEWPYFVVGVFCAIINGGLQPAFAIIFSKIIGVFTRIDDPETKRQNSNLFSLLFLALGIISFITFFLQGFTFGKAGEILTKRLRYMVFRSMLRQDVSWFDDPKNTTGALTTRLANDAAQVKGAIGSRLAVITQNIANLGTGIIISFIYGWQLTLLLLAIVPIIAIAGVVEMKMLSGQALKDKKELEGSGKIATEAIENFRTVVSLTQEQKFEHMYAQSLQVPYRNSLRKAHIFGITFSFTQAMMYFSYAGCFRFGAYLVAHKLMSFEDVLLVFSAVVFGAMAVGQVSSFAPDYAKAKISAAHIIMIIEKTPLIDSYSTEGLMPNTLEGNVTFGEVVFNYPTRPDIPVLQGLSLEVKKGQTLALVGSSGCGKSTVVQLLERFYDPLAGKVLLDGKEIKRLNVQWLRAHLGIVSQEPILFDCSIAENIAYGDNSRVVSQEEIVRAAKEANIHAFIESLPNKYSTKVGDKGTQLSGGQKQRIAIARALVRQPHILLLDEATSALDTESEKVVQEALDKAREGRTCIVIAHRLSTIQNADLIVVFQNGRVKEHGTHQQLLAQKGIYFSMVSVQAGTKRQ
Sequence of Nuclear receptor subfamily 5 group A member 2 (O00482 whole entry): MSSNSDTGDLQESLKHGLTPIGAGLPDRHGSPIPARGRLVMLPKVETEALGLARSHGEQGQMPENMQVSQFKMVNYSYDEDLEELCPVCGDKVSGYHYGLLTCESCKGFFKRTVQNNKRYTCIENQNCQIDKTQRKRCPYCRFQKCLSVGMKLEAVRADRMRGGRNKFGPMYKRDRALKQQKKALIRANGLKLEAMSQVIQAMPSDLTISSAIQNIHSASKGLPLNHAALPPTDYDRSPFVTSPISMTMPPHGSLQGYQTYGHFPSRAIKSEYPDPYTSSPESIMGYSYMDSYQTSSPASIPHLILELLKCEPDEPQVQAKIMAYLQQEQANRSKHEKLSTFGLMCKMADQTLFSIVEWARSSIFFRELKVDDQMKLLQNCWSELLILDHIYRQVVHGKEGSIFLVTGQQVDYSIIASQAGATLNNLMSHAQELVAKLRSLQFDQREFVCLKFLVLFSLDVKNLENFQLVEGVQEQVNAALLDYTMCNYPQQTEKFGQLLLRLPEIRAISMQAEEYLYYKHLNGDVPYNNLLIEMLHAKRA

**Q.** With `O=C(c1ccoc1)N1CCN(c2cc(-c3ccncc3)nc3cc(-c4cccc(Cl)c4)nn23)CC1` as the molecule, how does the EC50 [1] read?
**A.** 3.43 µM (active)

**Q.** And the EC50 [2]?
**A.** 2.21 µM (active)

**Q.** And the IC50 (H9c2)?
**A.** > 79 µM (inactive)

**Q.** Which EC50 [3] does the source give for `O=C(O)c1coc(-c2ccc(-c3ccccc3)cc2)n1` here?
**A.** > 100 µM (inactive)

**Q.** Which IC50 [4] does the source give for `CC(=O)Nc1ccc(NC(=O)CSc2nnc(-c3cc4ccccc4o3)n2C)cc1` here?
**A.** 35.9 µM (inactive)

**Q.** What about the IC50 [5] of the same molecule?
**A.** 35.9 µM (inactive)

**Q.** And the IC50 (Steroidogenic factor 1)?
**A.** 18.2 µM (inactive)
